Earlier results in US6713077B1, “Control of shoot/foliar feeding pests with pesticide seed treatments” (Monsanto Technology, LLC, priority 1999, dated 2004).
Read-outs that look alike come from different tables or passages of the source.

Columns and labels:
[1] = cited from earlier work
[2] = cited from earlier work; remark: listed apart in the source

## C#CCN1CC(=O)N(COC(=O)[C@@H]2C(C=C(C)C)C2(C)C)C1=O (mixture of isomers) [Imiprothrin]
[1]; 25° C.
  Vapor pressure: 1.8 E-3 mPa

## CC(C)[C@@H](Nc1ccc(C(F)(F)F)cc1Cl)C(=O)OC(C#N)c1cccc(Oc2ccccc2)c1 (mixture of isomers) [Tau-fluvalinate, (RS)-alpha-cyano-3-phenoxybenzyl(R)-2-[2-chloro-4-(trifluoromethyl)anilino]-3-methylbutanoate]
[1]; temperature not given
  Vapor pressure: 9 E-8 mPa
[2]; 20° C.
  Water solubility: 1.03 ppb (20° C.)

## CC1(C)C(/C=C(\Cl)C(F)(F)F)C1C(=O)OC(C#N)c1cccc(Oc2ccccc2)c1 (racemic) [Cyhalothrin, [1α, 3α(Z)]-(±)-cyano-(3-phenoxyphenyl)methyl 3-(2-chloro-3,3,3-trifluoro-1-propenyl)-2,2-cimethylcyclopropanecarboxylate]
[1]; temperature not given
  Vapor pressure: 0.001 mPa
[2]; 20° C.
  Water solubility: 0.004 ppb (20° C.)

## CC1(C)C(C=C(Cl)Cl)C1C(=O)OC(C#N)c1cccc(Oc2ccccc2)c1 (racemic) [Cypermethrin, (±) alpha-cyano-(3-phenoxyphenyl)methyl(+)-cis,trans-3-(2,2-dichloroethenyl)-2,2-dimethyl-cyclopropane carboxylate]
[1]; temperature not given
  Vapor pressure: 2.3 E-4 mPa

## CC(C)[C@H](C(=O)OC(C#N)c1cccc(Oc2ccccc2)c1)c1ccc(OC(F)F)cc1 (mixture of isomers) [Flucythrinate, (±)-cyano (3-phenoxyphenyl)methyl (±)-4-(difluoromethoxy)-alpha-(1-methylethyl) benzeneacetate]
[1]; 25° C.
  Vapor pressure: 0.0012 mPa
[2]; 21° C.
  Water solubility: 0.5 mg/l (21° C.)

## CC1(C)C(C=C(Cl)Cl)C1C(=O)OC(C#N)c1cccc(Oc2ccccc2)c1 (racemic) [Zeta-cypermethrin, S-cyano (3-phenoxyphenyl)methyl (±) cis/trans 3-(2,2-dichloroethenyl) 2,2 dimethylcyclopropane carboxylate]
[1]; temperature not given
  Vapor pressure: 2.5 E-4 mPa

## CC1(C)[C@H](C(=O)O[C@H](C#N)c2cccc(Oc3ccccc3)c2)[C@@H]1/C=C\C(=O)OC(C(F)(F)F)C(F)(F)F [Acrinathrin, (S)-alpha-cyano-3-phenoxybenzyl(Z)-(IR-cis)-2,2-dimethyl-3-[2-(2,2,2-trifluoro-trifluoromethyl-ethoxycarbonyl)vinyl]cyclopropane carboxylate]
[1]; temperature not given
  Vapor pressure: 4.4 E-5 mPa

## C=CCC1=C(C)C(OC(=O)C2C(C=C(C)C)C2(C)C)CC1=O [Allethrin, (RS)-3-allyl-2-methyl-4-oxcyclopent-2-enyl-(1A,3R; 1R,3S)-2,2-dimethyl-3-(2-methylprop-1-enyl)cyclopropane carboxylate]
[1]; 21° C.
  Vapor pressure: 0.16 mPa
[2]; in words
  Water solubility: practically insol.

## CC1(C)C(C=C(Cl)Cl)C1C(=O)OC(C#N)c1cccc(Oc2ccccc2)c1 (stereo not drawn) [Alpha cypermethrin, (IR cis) S and (IS cis) R enantiomer isomer pair of alpha-cyano-3-phenoxybenzyl-3-(2,2dichlorovinyl)-2,2-dimethylcyclopropane carboxylate]
[1]; temperature not given
  Vapor pressure: 2.3 E-2 mPa

## CC1(C)C(C=C(Cl)Cl)C1C(=O)OC(C#N)c1ccc(F)c(Oc2ccccc2)c1 (stereo not drawn) [Beta cyfluthrin]
[1]; no unit, temperature not given
  Vapor pressure: 1.4 to 8.5 E-5
[2]; 25° C.
  Water solubility: 1.2-2.1 μg/l (25° C.)

## CC1(C)[C@H](C=C(Cl)Cl)[C@H]1C(=O)O[C@@H](C#N)c1cccc(Oc2ccccc2)c1 [Beta-cypermethrin]
[1]; temperature not given
  Vapor pressure: 1.8 E-4 mPa

## C=CCC1=C(C)C(OC(=O)[C@@H]2[C@@H](C=C(C)C)C2(C)C)CC1=O (some centres unmarked) [Bioallethrin]
[1]; 25° C.
  Vapor pressure: 43.9 mPa
[2]; temperature not given
  Water solubility: 4.6 mg/L

## CC(C)=C[C@@H]1[C@@H](C(=O)OCc2coc(Cc3ccccc3)c2)C1(C)C [Bioresmethrin, (1R-trans)-[5-(phenylmethyl)-3-furanyl]methyl 2,2-dimethyl-3-(2-methyl-1-propenyl)cyclopropanecarboxylate]
[1]; (Tech.)
  Vapor pressure: 18.6 mPa
[1]; (d-resmethrin)
  Vapor pressure: 0.45 mPa
[2]; temperature not given
  Water solubility: <0.3 mg/L

## CCOc1ccc(C2(C(=O)OC(C#N)c3cccc(Oc4ccccc4)c3)CC2(Cl)Cl)cc1 (centres unmarked) [Cycloprothrin, cyano-(3-phenoxyphenyl)methyl 2,2-dichloro-1-(4-ethoxyphenyl)cyclopropane carboxylate]
[1]; 20° C.
  Vapor pressure: 2.13 E-3 mPa
[2]; 25° C.
  Water solubility: 0.091 mg/l (25° C.)

## CC1(C)C(C=C(Cl)Cl)C1C(=O)OC(C#N)c1ccc(F)c(Oc2ccccc2)c1 (centres unmarked) [Cyfluthrin, cyano(4-fluoro-3-phenoxyphenyl)methyl 3-(2,2-dichloroethenyl)-2,2-dimethyl-cyclopropanedarboxylate]
[2]; 25° C.
  Water solubility: 2-4.3 μg/l (25° C.)

## CC(C)=CC1C(C(=O)OC(C#N)c2cccc(Oc3ccccc3)c2)C1(C)C (centres unmarked) [Cyphenothrin]
[1]; 20° C.
  Vapor pressure: 0.12 mPa
[2]; 25° C.
  Water solubility: <10 μg/l (25° C.)

## CC1(C)[C@H](C(=O)O[C@H](C#N)c2cccc(Oc3ccccc3)c2)[C@@H]1C=C(Br)Br [Deltamethrin, (s)-alpha-cyano-3-phenoxybenzyl (IR,3R)-3-(2,2-dibromovinyl)-2,2-dimethyl cyclopropanecarboxylate]
[1]; temperature not given
  Vapor pressure: 1.24 E-5 mPa

## C#CC(OC(=O)C1C(C=C(C)C)C1(C)C)/C(C)=C/CC (centres unmarked) [Empenthrin]
[1]; 23.6° C.
  Vapor pressure: 14 mPa

## CC(C)[C@H](C(=O)O[C@H](C#N)c1cccc(Oc2ccccc2)c1)c1ccc(Cl)cc1 [Esfenvalerate, (S)-cyano (3-phenoxyphenyl) methyl (S)-4-chloro-alpha-(1-methylethyl)benzeneacetate]
[1]; temperature not given
  Vapor pressure: 2 E-4 mPa
[2]; temperature not given
  Water solubility: 0.002 mg/L

## CC1(C)C(C(=O)OC(C#N)c2cccc(Oc3ccccc3)c2)C1(C)C (stereo not drawn) [Fenpropathrin, alpha-cyano-3-phenoxybenzyl 2,2,3,3,-tetramethyl cyclopropoanecarboxylate]
[1]; temperature not given
  Vapor pressure: 0.73 mPa
[2]; 25° C.
  Water solubility: 14.1 μg/l (25° C.)

## CC(C)C(C(=O)OC(C#N)c1cccc(Oc2ccccc2)c1)c1ccc(Cl)cc1 (stereo not drawn) [Fenvalerate, (s)-cyano(3-phenoxyphenyl)methyl 4-chloro alpha (1-methylethyl)benzeneacetate]
[1]; 20° C.
  Vapor pressure: 1.92 E-2 mPa
[2]; temperature not given
  Water solubility: <0.01 mg/L

## CC1(C)C(C=C(Cl)Cl)C1C(=O)OCc1cccc(Oc2ccccc2)c1 (stereo not drawn) [Permethrin, (3-phenoxyphenyl)-methyl(+)cis-trans-3-(2,2-dichoroethenyl)-2,2-dimethylcyclopropanecarboxylate]
[1]; temperature not given
  Vapor pressure: 0.07 mPa

## C#CCC1=C(C)C(OC(=O)C2C(C=C(C)C)C2(C)C)CC1=O (centres unmarked) [Prallethrin]
[1]; 23.1° C.
  Vapor pressure: <0.013 mPa

## CC(C)=CC1C(C(=O)OCN2C(=O)C3=C(CCCC3)C2=O)C1(C)C (stereo not drawn) [Tetramethrin, 3,4,5,6-tetra hydro-phthalimidomethyl-(IRS)-cis-trans-chrysanthemate]
[1]; 30° C.
  Vapor pressure: 0.944 mPa

## CC1(C)[C@H](C=C(Cl)Cl)[C@H]1C(=O)O[C@H](C#N)c1cccc(Oc2ccccc2)c1 [Theta cypermethrin]
[1]; temperature not given
  Vapor pressure: 1.8 E-4 mPa

## CC1(C)[C@H](C(=O)O[C@H](C#N)c2cccc(Oc3ccccc3)c2)[C@@H]1C(Br)C(Br)(Br)Br (some centres unmarked) [Tralomethrin]
[1]; 25° C.
  Vapor pressure: 4.6 E-6 mPa

## CC1(C)[C@H](C=C(Cl)Cl)[C@H]1C(=O)OCc1c(F)c(F)cc(F)c1F [Transfluthrin]
[1]; temperature not given
  Vapor pressure: 0.4 mPa

## CC(C)C(C(=O)OC(C#N)c1cccc(Oc2ccc(Br)cc2)c1)c1ccc(OC(F)F)cc1 (centres unmarked) [ZXI8901]
[1]; 20° C.
  Vapor pressure: 1.6 E-4 mPa
